What was measured:
[1] = test system: rat paw edema; assay: Rat paw edema assay (carrageenan); type: in vivo, Male Sprague-Dawley rats; details: po, 1 hr before subplantar carrageenan, paw volume at 3 hr, read-out: ED50 (edema inhibition in rat paw)
Protocol: Male Sprague-Dawley rats (150-200 g) were fasted overnight and were given, po, either vehicle (1% methocel or 5% Tween 80), or a test compound. One hr later, a line was drawn using a permanent marker at the level above the ankle in one hind paw to define the area of the paw to be monitored. The paw volume (V0) was measured using a plethysmometer (Ugo-Basile, Italy) based on the principle of water displacement. The animals were then injected subplantarly with 50 μl of 1% carrageenan solution in saline (FMC Corp, Maine) into the paw using an insulin syringe with a 25-gauge needle (i.e., 500 μg carrageenan per paw). Three hr later, the paw volume (V3) was measured and the increases in paw volume (V3 -V0) were calculated. The animals were sacrificed by CO2 asphyxiation and the absence or presence of stomach lesions scored. Data were compared with the vehicle-control values and percent inhibition calculated. ED50 values were used for comparison. All treatment groups were coded to eliminate observer bias.

[2] = target: T1, COX-2 (Homo sapiens, UniProt P35354); assay: Human whole blood assay, COX-2 (LPS-induced PGE2 production); type: cell-based; details: 24 hours at 37° C
T1 construct: incubation of human whole blood with LPS which induces COX-2; endogenous in cells; host or cells: LPS-stimulated fresh human whole blood (blood cells not specified)
T1 sequence (P35354 18-604): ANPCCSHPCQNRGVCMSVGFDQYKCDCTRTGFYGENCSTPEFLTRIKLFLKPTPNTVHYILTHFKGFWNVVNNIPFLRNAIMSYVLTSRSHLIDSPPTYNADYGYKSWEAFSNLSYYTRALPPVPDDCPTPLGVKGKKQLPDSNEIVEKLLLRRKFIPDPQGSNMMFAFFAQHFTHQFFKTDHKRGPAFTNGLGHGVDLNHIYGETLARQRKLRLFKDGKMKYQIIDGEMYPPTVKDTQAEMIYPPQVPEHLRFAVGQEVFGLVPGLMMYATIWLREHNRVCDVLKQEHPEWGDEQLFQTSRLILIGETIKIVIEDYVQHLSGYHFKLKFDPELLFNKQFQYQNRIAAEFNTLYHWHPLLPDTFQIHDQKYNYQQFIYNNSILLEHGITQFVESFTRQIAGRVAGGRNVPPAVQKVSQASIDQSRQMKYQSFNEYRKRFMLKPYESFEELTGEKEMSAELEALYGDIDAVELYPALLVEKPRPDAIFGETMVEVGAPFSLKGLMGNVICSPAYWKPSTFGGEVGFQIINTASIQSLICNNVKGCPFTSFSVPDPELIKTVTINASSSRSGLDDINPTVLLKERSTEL
Excerpt: (§1) As well, platelets in whole blood contain a large amount of the COX-1 enzyme. Immediately following blood clotting, platelets are activated through a thrombin-mediated mechanism. This reaction results in the production of thromboxane B2 (TxB2) via activation of COX-1.
Fresh blood was collected in heparinized tubes by venipuncture from both male and female volunteers. The subjects had no apparent inflammatory conditions and had not taken any NSAIDs for at least 7 days prior to blood collection. Plasma was immediately obtained from a 2 mL blood aliquot to use as blank (basal levels of PGE2).
(§2) In the assay, inhibition is determined by measuring the amount of prostaglandin E2 (PGE2) synthesized in the presence of arachidonic acid, COX-1 or COX-2 and a putative inhibitor.

[3] = target: T2, COX-1 (Homo sapiens, UniProt P23219); assay: Human whole blood assay, COX-1 (clotting-induced TxB2 production); type: cell-based; details: 1 hour at 37° C
T2 construct: platelets in whole blood contain a large amount of the COX-1 enzyme; endogenous in cells; host or cells: platelets in fresh human whole blood
T2 sequence (P23219 24-599): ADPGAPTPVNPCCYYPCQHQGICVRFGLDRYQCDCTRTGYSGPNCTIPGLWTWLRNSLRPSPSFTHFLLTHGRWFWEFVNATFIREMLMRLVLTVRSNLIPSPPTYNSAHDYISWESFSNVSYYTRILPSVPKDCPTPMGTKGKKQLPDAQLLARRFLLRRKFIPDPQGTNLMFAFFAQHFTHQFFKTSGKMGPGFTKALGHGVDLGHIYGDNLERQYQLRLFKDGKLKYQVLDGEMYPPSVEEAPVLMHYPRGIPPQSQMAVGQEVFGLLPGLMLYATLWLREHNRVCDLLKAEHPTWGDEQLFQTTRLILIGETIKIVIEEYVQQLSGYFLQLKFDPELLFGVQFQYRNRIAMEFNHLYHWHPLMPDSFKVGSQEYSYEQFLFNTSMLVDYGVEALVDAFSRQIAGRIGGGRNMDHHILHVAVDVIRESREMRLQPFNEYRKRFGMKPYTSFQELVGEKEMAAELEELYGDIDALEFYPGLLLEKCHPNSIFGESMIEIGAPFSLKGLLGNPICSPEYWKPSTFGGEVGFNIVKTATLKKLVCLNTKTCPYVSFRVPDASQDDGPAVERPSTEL
Protocol: as §1
Aliquots of 500 μL were immediately transferred to siliconized microcentrifuge tubes preloaded with 2 μL of either DMSO or a test compound at final concentrations varying from 10 nM to 30 μM.
as §2

IC50 [2] [µM]	IC50 [3] [µM]	Compound	ED50 [1] [mg/kg]
2.8	20	CS(=O)(=O)c1ccc(-c2snnc2-c2ccc(F)cc2)cc1 [Example 2]	0.5
1.3	63	CS(=O)(=O)c1ccc(-c2snnc2-c2cccc(F)c2)cc1 [Example 3]	–
–	–	COc1ccc2c(c1)c(CC(=O)O)c(C)n2C(=O)c1ccc(Cl)cc1 [Indomethacin, indomethacin, reference compound]	2

From patent publication US5677318A, “Diphenyl-1,2-3-thiadiazoles as anti-inflammatory agents” (Merck Frosst Canada, Inc., priority 1996, dated 1997)
